# Source: ChEMBL document CHEMBL3351862, “Coumarin hybrids as novel therapeutic agents” (Bioorg Med Chem, 2014)
# What was measured:
# [1] = tested on: KB; experiment: Anticancer activity against human KB cells; type: functional, cell-based
# [2] = tested on: Human immunodeficiency virus; experiment: Antiviral activity against Human immunodeficiency virus; type: functional, organism-based; details: Human immunodeficiency virus 1
# [3] = tested on: Staphylococcus aureus; experiment: Antimicrobial activity against methicillin-resistant Staphylococcus aureus; type: functional
# [4] = molecular target: T1, Cholinesterase (Homo sapiens, UniProt P06276); experiment: Ratio of galamthamine IC50 to compound IC50 for BuChE (unknown origin)
# T1 sequence (P06276 whole entry): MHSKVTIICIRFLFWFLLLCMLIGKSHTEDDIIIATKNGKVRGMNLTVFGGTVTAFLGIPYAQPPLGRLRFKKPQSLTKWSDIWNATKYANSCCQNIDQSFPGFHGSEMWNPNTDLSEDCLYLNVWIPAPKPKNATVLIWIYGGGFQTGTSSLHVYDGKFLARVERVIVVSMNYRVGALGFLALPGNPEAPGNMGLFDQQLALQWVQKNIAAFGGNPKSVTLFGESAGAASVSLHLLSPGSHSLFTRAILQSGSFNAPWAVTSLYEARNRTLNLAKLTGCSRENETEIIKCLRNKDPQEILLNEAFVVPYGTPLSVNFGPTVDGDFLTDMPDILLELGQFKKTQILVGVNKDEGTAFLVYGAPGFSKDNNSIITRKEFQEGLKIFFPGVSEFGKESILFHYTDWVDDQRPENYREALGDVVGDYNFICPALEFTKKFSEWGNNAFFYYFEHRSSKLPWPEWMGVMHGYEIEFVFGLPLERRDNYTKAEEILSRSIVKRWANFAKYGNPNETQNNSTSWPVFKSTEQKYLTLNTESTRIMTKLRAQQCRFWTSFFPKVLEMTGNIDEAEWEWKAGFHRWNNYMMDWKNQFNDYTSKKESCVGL
# [5] = molecular target: T1, Cholinesterase; experiment: Inhibition of BuChE (unknown origin)
# [6] = tested on: Platelet; experiment: Inhibition of platelet (unknown origin) aggregation; type: functional, cell-based
# [7] = tested on: SK-OV-3; experiment: Growth inhibition of human SKOV3 cells at 50 uM; type: functional; details: read-out: GI
# [8] = tested on: CCRF-CEM; experiment: Growth inhibition of human CCRF-CEM cells at 50 uM; type: functional; details: read-out: GI
# [9] = molecular target: Proto-oncogene tyrosine-protein kinase Src (Homo sapiens, UniProt P12931); experiment: Inhibition of Src kinase (unknown origin)
# Sequence of Proto-oncogene tyrosine-protein kinase Src (P12931 2-536 limits assumed): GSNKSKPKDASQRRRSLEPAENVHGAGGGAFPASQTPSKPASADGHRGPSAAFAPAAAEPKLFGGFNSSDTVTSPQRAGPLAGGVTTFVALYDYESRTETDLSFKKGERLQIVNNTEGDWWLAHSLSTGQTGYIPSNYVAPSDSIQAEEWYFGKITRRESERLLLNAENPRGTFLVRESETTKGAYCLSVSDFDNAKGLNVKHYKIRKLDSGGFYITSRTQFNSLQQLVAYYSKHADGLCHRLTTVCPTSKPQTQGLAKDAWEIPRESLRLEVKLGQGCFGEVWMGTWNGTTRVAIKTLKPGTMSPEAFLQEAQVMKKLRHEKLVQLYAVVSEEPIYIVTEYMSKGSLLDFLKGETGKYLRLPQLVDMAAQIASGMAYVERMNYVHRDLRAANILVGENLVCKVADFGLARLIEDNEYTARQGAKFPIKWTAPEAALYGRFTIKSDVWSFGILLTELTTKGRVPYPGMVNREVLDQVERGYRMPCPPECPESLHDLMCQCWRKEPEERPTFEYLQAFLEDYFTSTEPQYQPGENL
# [10] = tested on: MCF7; experiment: Growth inhibition of human MCF7 cells at 50 uM; type: functional; details: read-out: GI
# [11] = molecular target: Acetylcholinesterase (Homo sapiens, UniProt P22303); experiment: Inhibition of AChE (unknown origin)
# Sequence of Acetylcholinesterase (P22303 whole entry): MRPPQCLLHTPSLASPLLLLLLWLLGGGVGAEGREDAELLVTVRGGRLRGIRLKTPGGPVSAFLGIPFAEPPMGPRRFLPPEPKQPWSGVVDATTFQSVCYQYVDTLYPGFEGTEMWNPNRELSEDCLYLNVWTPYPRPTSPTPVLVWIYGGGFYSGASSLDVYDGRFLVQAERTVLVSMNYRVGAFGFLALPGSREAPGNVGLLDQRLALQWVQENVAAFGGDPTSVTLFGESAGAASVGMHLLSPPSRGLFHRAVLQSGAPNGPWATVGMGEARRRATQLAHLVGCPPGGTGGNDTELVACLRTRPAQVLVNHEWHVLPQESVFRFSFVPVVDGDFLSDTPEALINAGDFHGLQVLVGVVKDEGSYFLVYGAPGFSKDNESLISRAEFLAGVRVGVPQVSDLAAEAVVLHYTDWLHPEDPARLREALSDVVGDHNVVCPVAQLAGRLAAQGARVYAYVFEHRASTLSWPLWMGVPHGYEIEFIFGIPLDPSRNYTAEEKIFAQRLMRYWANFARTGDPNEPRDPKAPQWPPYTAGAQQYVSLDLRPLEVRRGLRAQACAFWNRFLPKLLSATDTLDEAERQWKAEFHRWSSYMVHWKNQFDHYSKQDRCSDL
# [12] = tested on: Human immunodeficiency virus 1; experiment: Antiviral activity against Human immunodeficiency virus 1 3B; type: functional, organism-based
# [13] = tested on: Human immunodeficiency virus 2; experiment: Antiviral activity against Human immunodeficiency virus 2 ROD; type: functional, organism-based; details: Human immunodeficiency virus 2, ISOLATE ROD
# [14] = tested on: Human immunodeficiency virus 1; experiment: Antiviral activity against Human immunodeficiency virus 1 harboring reverse transcriptase K103N/Y181C double mutant; type: functional, organism-based
smiles,measurement,setting,value
COc1cc(OC)cc(-c2cc3ccc(OC(C)=O)c(OC(C)=O)c3oc2=O)c1,IC50,[1],5180 µM
O=c1oc2ccccc2cc1CSc1nc2cccnc2[nH]1,EC50,[2],6.8 µM
O=c1oc2ccccc2cc1CSc1nc2ccccc2o1,EC50,[2],12 µM
O=c1oc2ccccc2c(O)c1-c1csc(Nc2cccc([N+](=O)[O-])c2)n1,MIC,[3],31.2 µg/mL
O=c1oc2ccccc2cc1CSc1nc2cncnc2[nH]1,EC50,[2],2 µM
Cc1cc(=O)oc2cc(OCc3cn(Cc4cc(=O)oc5ccc(Cl)cc45)nn3)ccc12,MIC,[3],6.25 µg/mL
Cc1cc(=O)oc2cc(OCCCCCCCN3CCN(CC(=O)Nc4c5c(nc6ccccc46)CCCC5)CC3)ccc12,Ratio IC50,[4],128
same,IC50,[5],0.099 µM
O=c1oc2ccc(O)cc2cc1-c1cc(O)cc(O)c1,IC50,[6],10.6 µM
COc1ccc(/C=C/C(=O)c2c(O)ccc3c(C)cc(=O)oc23)cc1O,inhibition of growth at 50 µM,[7],63%
same,inhibition of growth at 50 µM,[8],50%
same,IC50,[9],14.5 µM
same,inhibition of growth at 50 µM,[10],43%
Cc1cc(=O)oc2cc(OCCN3CCN(CC(=O)Nc4c5c(nc6ccccc46)CCCC5)CC3)ccc12,IC50,[11],0.092 µM
CCOC(=O)CNc1nc(Nc2ccc(C)cc2)nc(OCc2cc3ccccc3oc2=O)n1,IC50,[12],1 µg/mL
same,IC50,[13],1 µg/mL
same,IC50,[14],1 µg/mL
